Data published in patent US20190117655A1, “Treatment of Biliary Duct Cancer” (ASLAN Pharmaceuticals PTE LTD, priority 2015, published 2019).
Like-named read-outs stand apart in the source and are kept apart here.

Legend:
[1] = Combination of Varlitinib and Herceptin versus either alone; conditions: Varlitinib in combination with Herceptin (trastuzumab)
Text: In one embodiment the compound of formula (I), such as Varlitinib, is employed in combination with at least one further HER inhibitor, for example a combination of Varlitinib and Herceptin (trastuzumab) and/or pertuzumab.

cholangiocarcinoma = assay: Second line monotherapy trial in cholangiocarcinoma patients, CA19-9 marker; format: in vivo, human
Text: CA19-9 is a marker employed in the management of cholangiocarcinoma.

[2] = tested on: stage IV cholangiocarcinoma; assay: Example 1: person, stage IV EGFR positive cholangiocarcinoma, Varlitinib monotherapy; format: in vivo, human
[3] = tested on: extra-hepatic cholangiocarcinoma; assay: Example 2: person, stage IV extra-hepatic cholangiocarcinoma, Varlitinib with cisplatin/capecitabine then monotherapy; format: in vivo, human
Experimental: A person, stage IV, extra-hepatic cholangiocarcinoma, prior treatment: • Whipple • Radiotherapy • Gemzar/cisplatin for 6 months For the first 6 cycles, the patient received Varlitinib 400 mg BID continuously with cisplatin (80 mg/m^2 every 3 weeks) and capecitabine (1000 mg/m2 BID, 2 weeks on, 1 week off). […] In summary, the patient received varlitinib with chemo for 6 cycles and varlitinib monotherapy for another 4 cycles (3 weeks per cycle).

[4] = tested on: stage IV cholangiocarcinoma; assay: Example 3: person, stage IV cholangiocarcinoma, Varlitinib with cisplatin/capecitabine; format: in vivo, human; conditions: Varlitinib 400 mg bi-daily, cisplatin and capecitabine
Experimental: A person with stage IV cholangiocarcinoma (3 lesions) had progressive disease following treatment with: • radiotherapy, and • gemcitabine (Gemzar®) and cisplatin—6 months. […] The cisplatin and capecitabine regime was cisplatin 80 mg/m^2 IV infusion and capecitabine 1000 mg/m^2 orally twice daily for 14 days every 3 weeks.

[5] = tested on: stage IV cholangiocarcinoma; assay: Example 4: person, stage IV cholangiocarcinoma, Varlitinib 500 mg with cisplatin/capecitabine; format: in vivo, human; conditions: after treatment cycle 2; Varlitinib 500 mg bi-daily, cisplatin and capecitabine
Experimental: A person with stage IV cholangiocarcinoma had progressive disease following treatment with radiotherapy and bi-weekly 5-FU. […] The cisplatin and capecitabine regime was cisplatin 80 mg/m^2 IV infusion and capecitabine 1000 mg/m^2 orally twice daily for 14 days every 3 weeks.

[6] = tested on: stage IV cholangiocarcinoma and metastatic lymphadenopathy; assay: Example 5: person, stage IV cholangiocarcinoma and metastatic lymphadenopathy, Varlitinib with cisplatin/5-FU; format: in vivo, human; conditions: 300 mg BID Varlitinib with cisplatin/5-FU
Experimental: A person was diagnosed with stage IV cholangiocarcinoma and metastatic lymphadenopathy in January 2016. No prior surgery or treatment was given before initiating first line treatment of 300 mg BID Varlitinib combined with […]/5-FU, 28-day treatment cycle. Date of the first response 5 Mar. 2016, tumor C2 was reduced by 16%. Last response tumor C4 was reduced by 13% (17 May 2016).

[7] = tested on: intrahepatic bile duct cholangiocarcinoma; assay: Example 6: person, intrahepatic bile duct cholangiocarcinoma, Varlitinib with FOLFOX then monotherapy; format: in vivo, human; conditions: 9 cycles Varlitinib 400 mg reduced to 300 mg BID with FOLFOX, then 7 cycles monotherapy
Experimental: A person diagnosed in 2013 with intrahepatic bile duct cholangiocarcinoma, had received surgery in the form of left hemihepatectomy in 15 Jul. 2013. Prior therapies were gemcitabine and cisplatin (in the period 14 Aug. 2013 to 8 Jan. 2014) and repeated between 13 May 2015 and 1 Jul. 2015. With this treatment the status was progressive disease. The patient was given 9 cycles of a combination of Varlitinib 400 mg reduced to 300 mg BID and FOLFOX. This was followed with 7 cycles of Varlitinib monotherapy.

[8] = tested on: stage IV cholangiocarcinoma; assay: Example 7: person, stage IV cholangiocarcinoma, Varlitinib with cisplatin/5-FU then monotherapy; format: in vivo, human
Experimental: A person with stage IV cholangiocarcinoma newly diagnosed in 2014 received surgery (percutaneous […] cholangial drainage and transcatheter […] embolization), followed by adjuvant treatment of Varlitinib 400 mg BID combined with cisplatin s/5-FU 28-day cycle. After cycle 6 (14 Jul. 2015), only 400 mg BID Varlitinib was taken. Patient completed 10 cycles of monotherapy. At Cycle 11 Day 1, dose was reduced to 300 mg BID alternate days. […] 2015. Progressive disease observed in cycle 16 of monotherapy 12 Apr. 2016.

[9] = tested on: intrahepatic cholangiocarcinoma, stage IV; assay: Example 8: person, stage IV intrahepatic cholangiocarcinoma, Varlitinib with mFOLFOX6 then monotherapy (ASLAN001-002SG); format: in vivo, human; conditions: after cycle 18
Text: They received left hemihepatectomy followed by 6 cycles of adjuvant gemcitabine and cisplatin.

[10] = tested on: advanced or metastatic biliary tract cancer; assay: Example 10: Phase 2A single arm study of varlitinib plus capecitabine in Chinese patients (NCT03231176); format: in vivo, human; conditions: Varlitinib 300 mg BID plus capecitabine 1000 mg/m^2 BID 2 weeks on, 1 week off; ongoing study
Experimental: This study is to assess the efficacy of varlitinib (300 mg twice daily in a 21-day cycle) plus capecitabine (1,000 mg/m^2 twice daily for 2 weeks followed by a 7-day rest period) in patients with advanced or metastatic BTC.
Primary Objective: • To assess the efficacy of varlitinib plus capecitabine in patients with advanced or metastatic biliary tract cancer who progressed on first line of systemic therapy as measured by Objective Response Rate (ORR) based on RECIST v1.1.
Secondary Objectives: • To evaluate the efficacy of varlitinib plus capecitabine, as measured by duration of confirmed response (DoR), progression-free survival (PFS), overall survival (OS) and disease control rate (DCR) • To assess the safety and tolerability of varlitinib when combined with capecitabine
A phase 2A, single arm, multicentre study of varlitinib plus capecitabine in Chinese patients with advanced or metastatic biliary tract cancer who progressed on at least 1 line of systemic therapy.
The Study duration is divided into 3 different stages.
• Have histologically or cytologically confirmed advanced (unresectable) or metastatic BTC, including intrahepatic or extrahepatic CCA, gallbladder cancer and carcinoma of Ampulla of Vater. […]

[11] = tested on: treatment naïve advanced or metastatic biliary tract cancer (BTC); format: in vivo; conditions: for Median progression-free survival (PFS): at data cut-off
Experimental: The primary objectives for the phase Ib study are to determine the maximum tolerated dose (MTD) and to characterize the safety profile of varlitinib when given with gem/cis. Secondary objectives include evaluation of preliminary efficacy of the study regimen and to evaluate the pharmacokinetics of varlitinib, and any circulating metabolites. A modified 3+3+3 escalation design was used, with 2 varlitinib dose levels (200 and 300 mg twice daily) combined with cisplatin (25 mg/m^2, IV for 2 hours), followed by Gemcitabine (1000 mg/m^2, 30-minute infusion) on Day 1 and Day 8 in a 3 weeks cycle.

gastric tumours = conditions: 500 mg orally BID monotherapy 28 days, gastric tumours co-expressing EGFR and HER2 or HER2 amplified, cited from earlier work
[12] = tested on: advanced or metastatic biliary tract cancer; conditions: capecitabine monotherapy, similar populations; cited from earlier work
[13] = after treatment cycle 6, Varlitinib 400 mg bi-daily monotherapy
[14] = Cohort of 200 mg BID, with gem/cis
[15] = Cohort of 300 mg BID, with gem/cis

SMILES: C[C@@H]1COC(Nc2ccc3ncnc(Nc4ccc(OCc5nccs5)c(Cl)c4)c3c2)=N1 [Varlitinib, (R)—N4-[3-Chloro-4-(thiazol-2-ylmethoxy)-phenyl]-N6-(4-methyl-4,5,-dihydro-oxazol-2-yl)-quinazoline-4,6-diamine]
- Therapeutic activity of combination versus either entity alone [1]: more therapeutic activity than either entity alone
- Reduction in CA19-9 (cholangiocarcinoma; one patient, within one month of initiating Varlitinib): 90%
- CA19-9 levels (cholangiocarcinoma; second line Varlitinib monotherapy, cholangiocarcinoma patients): significant reduction
- Decrease in size of liver tumours [2, 13]: up to 23%
- Tumour marker CA 19-9 after treatment [2, 13]: ~250 U/ml
- Tumour marker CA 19-9, starting level ([2]; level from which the marker fell): ~900 U/ml
- Duration of partial remission ([3]; 6 cycles with chemo then monotherapy): 24 weeks
- Reduction in tumour size ([3]; end of cycle 6, Varlitinib 400 mg BID with cisplatin 80 mg/m^2 and capecitabine 1000 mg/m2 BID): 85.77%
- Reduction in tumour size ([3]; end of cycle 8, varlitinib monotherapy after cycle 6): 87%
- Disease status by RECIST ([3]; end of cycle 10, on varlitinib monotherapy): disease progression
- Tolerability [4]: well tolerated
- Response ([4]; after treatment cycle 6): 85.77%
- Dose limiting toxicity ([4]; first two treatment cycles): No dose limiting toxicity was observed
- Response [5]: 4%
- Current disease status [6]: stable disease
- Tumor reduction, first response ([6]; C2, first line): 16%
- Tumor reduction, last response ([6]; C4, first line): 13%
- Patient status [7]: partial response
- Reduction in tumor size [7]: 50%
- Cycle of treatment in which first response was observed ([8]; Varlitinib 400 mg BID with cisplatin/5-FU, 28-day cycle): 2 cycle
- Cycle in which progressive disease was observed ([8]; Varlitinib monotherapy after cycle 6): 16 cycle
- Disease control ([8]; varlitinib monotherapy after 6 cycles of varlitinib with cisplatin/5-FU): remarkable disease control
- Reduction in tumor size, best response from baseline ([9]; 9 cycles Varlitinib 400 mg BID with mFOLFOX6, then 9 cycles monotherapy): 53%
- Tumor assessment status [9]: partial response
- Safety and tolerability [10]: safe and tolerated without any unexpected adverse events
- Median progression-free survival (PFS) ([11]; 200 mg cohort, with gem/cis): 238 days
- Median progression-free survival (PFS) ([11]; 300 mg cohort, with gem/cis): not reached
- DCR overview: Complete Response, patients ([11]; All, with gem/cis): 0
- DCR overview: Non-responders, patients ([11]; All, with gem/cis): 4
- DCR overview: PD, patients ([11]; All, with gem/cis): 0
- DCR overview: Partial Response, patients ([11]; All, with gem/cis): 7
- DCR overview: Responders, patients ([11]; All, with gem/cis): 17
- DCR overview: Responders, share of evaluable patients ([11]; All, with gem/cis): (81.0%)
- DCR overview: SD (≤12 weeks), patients ([11]; All, with gem/cis): 2
- DCR overview: SD (≥12 weeks), patients ([11]; All, with gem/cis): 10
- ORR overview: Complete Response, patients ([11]; All, with gem/cis): 0
- ORR overview: PD, patients ([11]; All, with gem/cis): 0
- ORR overview: Partial Response, patients ([11]; All, with gem/cis): 7
- ORR overview: Partial Response, share of evaluable patients ([11]; All, with gem/cis): (33.3%)
- ORR overview: SD (≥6 weeks), patients ([11]; All, with gem/cis): 12
- DCR overview: Complete Response, patients [11, 14]: 0
- DCR overview: Non-responders, patients [11, 14]: 1
- DCR overview: PD, patients [11, 14]: 0
- DCR overview: Partial Response, patients [11, 14]: 4
- DCR overview: Responders, patients [11, 14]: 10
- DCR overview: Responders, share of evaluable patients [11, 14]: (90.9%)
- DCR overview: SD (≤12 weeks), patients [11, 14]: 1
- DCR overview: SD (≥12 weeks), patients [11, 14]: 6
- ORR overview: Complete Response, patients [11, 14]: 0
- ORR overview: PD, patients [11, 14]: 0
- ORR overview: Partial Response, patients [11, 14]: 4
- ORR overview: Partial Response, share of evaluable patients [11, 14]: (36.4%)
- ORR overview: SD (≥6 weeks), patients [11, 14]: 7
- DCR overview: Complete Response, patients [11, 15]: 0
- DCR overview: Non-responders, patients [11, 15]: 3
- DCR overview: PD, patients [11, 15]: 0
- DCR overview: Partial Response, patients [11, 15]: 3
- DCR overview: Responders, patients [11, 15]: 7
- DCR overview: Responders, share of evaluable patients [11, 15]: (70.0%)
- DCR overview: SD (≤12 weeks), patients [11, 15]: 1
- DCR overview: SD (≥12 weeks), patients [11, 15]: 4
- ORR overview: Complete Response, patients [11, 15]: 0
- ORR overview: PD, patients [11, 15]: 0
- ORR overview: Partial Response, patients [11, 15]: 3
- ORR overview: Partial Response, share of evaluable patients [11, 15]: (30%)
- ORR overview: SD (≥6 weeks), patients [11, 15]: 5
- Antitumor activity ([11]; both 200 mg and 300 mg cohorts, Varlitinib plus gem/cis): Antitumor activity was observed
- Patients with partial response per RECIST v1.1 ([11]; both cohorts, with gem/cis): 7 patients
- Patients with stable disease more than 12 weeks ([11]; both cohorts, with gem/cis): 10 patients
- All-grade adverse event: anaemia ([11]; human, in vivo): 33%
- All-grade adverse event: decreased appetite ([11]; human, in vivo): 38%
- All-grade adverse event: diarrhoea ([11]; human, in vivo): 38%
- All-grade adverse event: nausea ([11]; human, in vivo): 38%
- All-grade adverse event: neutrophil decreased ([11]; human, in vivo): 38%
- All-grade adverse event: platelet decreased ([11]; human, in vivo): 52%
- Dose limiting toxicities observed, number of patients ([11]; human, in vivo): 3 patients
- Grade ≥3 adverse event: anaemia ([11]; human, in vivo): 19%
- Grade ≥3 adverse event: neutrophil decreased ([11]; human, in vivo): 33%
- Grade ≥3 adverse event: platelet decreased ([11]; human, in vivo): 29%
- Disease control rate ([11]; with gem/cis): 81.0%
- Signs of clinical activity: signalling pathways responsible for cell proliferation (gastric tumours; biopsies before/after): downregulation of signalling pathways responsible for cell proliferation
- Signs of clinical activity: cell survival and cell proliferation in gastric tumours (gastric tumours): reduction in cell survival and cell proliferation

SMILES: CCCCCOC(=O)Nc1nc(=O)n([C@@H]2O[C@H](C)[C@@H](O)[C@H]2O)cc1F [capecitabine]
- Historical response rate, ORR [12]: 6-8%
